Measured values: ChEMBL document CHEMBL4190189, “Exploring Jolkinol D Derivatives To Overcome Multidrug Resistance in Cancer” (J Nat Prod, 2017)

Tests used:
[1] = Induction of apoptosis in human EPP85-181RNOV cells at 30 uM after 72 hrs by annexin-V/propidium iodide staining based flow cytometric method relative to control; type: functional
[2] = target: T1, ATP-dependent translocase ABCB1 (Homo sapiens, UniProt P08183); experiment: Inhibition of human ABCB1 expressed in mouse L5178Y cells assessed as potentiation of doxorubicin-induced cytotoxicity by measuring combination index at 15:1 compound to doxorubicin ratio after 48 hrs by MTT assay; type: cell-based
L5178Y [3] = experiment: Cytotoxicity against mouse L5178Y cells assessed as reduction in cell viability after 72 hrs by MTT assay; type: cell-based
[4] = target: T1, ATP-dependent translocase ABCB1; experiment: Modulation of human ABCB1 expressed in mouse L5178Y cells assessed as fluorescence activity ratio at 2 uM pretreated for 10 mins followed by rhodamine-123 addition measured after 20 mins by flow cytometry (reference value: 0.87); type: cell-based
L5178Y [5] = experiment: Cytotoxicity against mouse L5178Y cells transfected with human ABCB1 assessed as reduction in cell viability after 72 hrs by MTT assay; type: functional, cell-based
[6] = Cytotoxicity against human EPP85-181RDB cells assessed as reduction in cell viability after 5 days by SRB assay; type: functional, cell-based; conditions: 120 h
[7] = Cytotoxicity against human EPP85-181P cells assessed as reduction in cell viability after 5 days by SRB assay; type: cell-based; conditions: 120 h
[8] = Cytotoxicity against human EPP85-181RNOV cells assessed as reduction in cell viability after 5 days by SRB assay; type: functional, cell-based; conditions: 120 h
[9] = Induction of apoptosis in human EPP85-181RDB cells at 30 uM after 72 hrs by annexin-V/propidium iodide staining based flow cytometric method relative to control; type: functional
[10] = target: T1, ATP-dependent translocase ABCB1; experiment: Modulation of human ABCB1 expressed in mouse L5178Y cells assessed as fluorescence activity ratio at 20 uM pretreated for 10 mins followed by rhodamine-123 addition measured after 20 mins by flow cytometry (reference value: 0.87); type: cell-based
[11] = Cytotoxicity against human EPG85-257RNOV cells assessed as reduction in cell viability after 5 days by SRB assay; type: functional, cell-based; conditions: 120 h
[12] = Resistance ratio of IC50 for human EPP85-181P cells to IC50 for human EPP85-181RDB cells; type: functional
[13] = target: T1, ATP-dependent translocase ABCB1; experiment: Inhibition of human ABCB1 expressed in mouse L5178Y cells assessed as potentiation of doxorubicin-induced cytotoxicity by measuring combination index at 50:1 compound to doxorubicin ratio after 48 hrs by MTT assay; type: cell-based
[14] = Resistance ratio of IC50 for human EPG85-257P cells to IC50 for human EPG85-257RDB cells; type: functional
[15] = Resistance ratio of IC50 for human EPG85-257P cells to IC50 for human EPG85-257RNOV cells; type: functional
[16] = target: T1, ATP-dependent translocase ABCB1; experiment: Inhibition of human ABCB1 expressed in mouse L5178Y cells assessed as potentiation of doxorubicin-induced cytotoxicity by measuring combination index at 200:1 compound to doxorubicin ratio after 48 hrs by MTT assay; type: cell-based
[17] = target: T1, ATP-dependent translocase ABCB1; experiment: Inhibition of human ABCB1 expressed in mouse L5178Y cells assessed as potentiation of doxorubicin-induced cytotoxicity by measuring combination index at 100:1 compound to doxorubicin ratio after 48 hrs by MTT assay; type: cell-based

T1 sequence (P08183 whole entry): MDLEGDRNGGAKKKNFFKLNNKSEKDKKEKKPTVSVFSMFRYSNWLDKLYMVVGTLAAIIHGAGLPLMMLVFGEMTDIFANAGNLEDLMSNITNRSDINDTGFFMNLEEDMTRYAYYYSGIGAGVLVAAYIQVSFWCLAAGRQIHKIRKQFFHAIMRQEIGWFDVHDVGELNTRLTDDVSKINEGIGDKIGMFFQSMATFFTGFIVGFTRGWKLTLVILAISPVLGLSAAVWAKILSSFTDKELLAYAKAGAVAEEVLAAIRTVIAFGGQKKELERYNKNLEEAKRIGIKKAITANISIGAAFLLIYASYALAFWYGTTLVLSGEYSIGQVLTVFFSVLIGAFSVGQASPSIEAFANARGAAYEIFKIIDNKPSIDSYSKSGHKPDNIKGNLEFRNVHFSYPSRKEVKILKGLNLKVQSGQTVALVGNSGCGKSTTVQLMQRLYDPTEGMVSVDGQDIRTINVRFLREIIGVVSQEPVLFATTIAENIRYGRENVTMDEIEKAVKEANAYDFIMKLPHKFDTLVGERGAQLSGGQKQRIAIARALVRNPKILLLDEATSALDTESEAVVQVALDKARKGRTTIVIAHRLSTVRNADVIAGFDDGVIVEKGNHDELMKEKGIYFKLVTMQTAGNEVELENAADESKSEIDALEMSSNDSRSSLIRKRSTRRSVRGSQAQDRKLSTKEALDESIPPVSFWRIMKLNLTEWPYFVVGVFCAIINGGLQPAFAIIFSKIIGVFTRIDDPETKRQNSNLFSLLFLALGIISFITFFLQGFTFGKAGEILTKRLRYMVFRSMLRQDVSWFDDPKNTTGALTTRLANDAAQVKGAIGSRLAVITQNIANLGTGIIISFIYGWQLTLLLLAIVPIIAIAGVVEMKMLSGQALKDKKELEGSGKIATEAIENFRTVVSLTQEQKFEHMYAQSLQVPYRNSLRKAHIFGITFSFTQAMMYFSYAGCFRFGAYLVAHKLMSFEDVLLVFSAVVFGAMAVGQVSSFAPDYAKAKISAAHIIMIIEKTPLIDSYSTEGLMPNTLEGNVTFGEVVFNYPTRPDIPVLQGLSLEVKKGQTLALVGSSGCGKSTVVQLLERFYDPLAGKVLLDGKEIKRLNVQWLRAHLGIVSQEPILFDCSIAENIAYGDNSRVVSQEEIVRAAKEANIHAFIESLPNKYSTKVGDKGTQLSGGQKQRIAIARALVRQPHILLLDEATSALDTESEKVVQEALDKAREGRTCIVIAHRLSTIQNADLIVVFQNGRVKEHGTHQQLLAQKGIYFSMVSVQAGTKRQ

Row | Ratio [4] | Ratio [10] | Structure (SMILES) | fold change (FC) [1] | CI [2] | IC50 (L5178Y [3]) | IC50 (L5178Y [5]) | IC50 [6] | IC50 [7] | IC50 [8] | fold change (FC) [9] | IC50 [11] | Ratio IC50 [12] | CI [13] | Ratio IC50 [14] | Ratio IC50 [15] | CI [16] | CI [17]
1 | 9.4 | 25.4 | CC(=O)O[C@]12C[C@H](C)[C@H](OC(=O)c3ccc(C(F)(F)F)cc3)[C@@H]1/C=C(/C)CC[C@H]1[C@@H](/C=C(\C)C2=O)C1(C)C |  |  | > 19 µM | > 80 µM |  |  |  |  | < 10 µM |  |  | 0.4 | 0.2 |  | 
2 | 11.6 | 37.2 | CC(=O)O[C@]12C[C@H](C)[C@H](OC(=O)c3ccc(-c4ccccc4)cc3)[C@@H]1/C=C(/C)CC[C@H]1[C@@H](/C=C(\C)C2=O)C1(C)C |  |  | > 19 µM | > 19 µM |  |  |  |  |  |  |  |  | 0.2 |  | 0.32

Further lines, the compound ahead of its results:

Row | Structure (SMILES) | Ratio [4] | Ratio [10] | fold change (FC) [1] | CI [2] | IC50 (L5178Y [3]) | IC50 (L5178Y [5]) | IC50 [6] | IC50 [7] | IC50 [8] | fold change (FC) [9] | IC50 [11] | Ratio IC50 [12] | CI [13] | Ratio IC50 [14] | Ratio IC50 [15] | CI [16] | CI [17]
3 | CC(=O)O[C@]12C[C@H](C)[C@H](OC(=O)C34CC5CC(CC(C5)C3)C4)[C@@H]1/C=C(/C)CC[C@H]1[C@@H](/C=C(\C)C2=O)C1(C)C | 12.6 | 29 | 5 | 1.11 | > 19 µM | > 19 µM | 5.86 µM | 8.61 µM | 6.63 µM | 17 | < 10 µM |  |  |  |  |  | 
4 | C/C1=C/[C@H]2[C@@H](OC(=O)c3ccc(C(F)(F)F)cc3)[C@@H](C)C[C@]2(O)C(=O)/C(C)=C/[C@@H]2[C@H](CC1)C2(C)C | 3 | 9.9 |  |  | > 19 µM | > 80 µM |  |  |  |  |  | 0.4 |  |  |  |  | 
5 | CC(=O)O[C@]12C[C@H](C)[C@H](OC(=O)/C=C/c3ccccc3)[C@@H]1/C=C(/C)CC[C@H]1[C@@H](/C=C(\C)C2=O)C1(C)C | 28.6 | 41.5 |  |  | > 19 µM | > 19 µM |  |  |  |  |  |  | 1.13 | 0.2 |  |  | 
6 | CC(=O)O[C@]12C[C@H](C)[C@H](OC(=O)c3cccc(C)c3)[C@@H]1/C=C(/C)CC[C@H]1[C@@H](/C=C(\C)C2=O)C1(C)C | 2.2 | 18 |  |  | > 19 µM | > 80 µM |  |  |  |  | < 10 µM |  |  |  |  |  | 
7 | C/C1=C/[C@H]2[C@@H](OC(=O)c3ccc4ccccc4c3)[C@@H](C)C[C@]2(O)C(=O)/C(C)=C/[C@@H]2[C@H](CC1)C2(C)C | 8.3 | 16.7 |  |  | > 19 µM | > 19 µM |  |  |  |  | < 10 µM | 0.3 |  | 0.3 | 0.4 | 0.2 | 
8 | COc1cccc(C(=O)O[C@H]2[C@@H](C)C[C@]3(O)C(=O)/C(C)=C/[C@@H]4[C@H](CC/C(C)=C\[C@@H]23)C4(C)C)c1 | 12 | 32.8 |  |  | > 19 µM | > 19 µM |  |  |  |  |  |  | 0.38 |  |  |  | 
